Here are results for 19 compounds from PubChem BioAssay (NCI).

The structures appear in SMILES notation.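 Values below derive from 48-hour exposures of cells grown in 96-well plates, with endpoints linearly interpolated between the two concentrations bracketing the appropriate inhibition level. GI50 marks 50% less growth. TGI denotes the concentration required for complete inhibition of growth.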 A value given as a limit tells only on which side of the number the result lay.

Usually GI50 stands for the concentration that inhibits growth by half. The TGI is the concentration at which net growth stops. A high value points to lower sensitivity of the cells.

Some test systems named below: COLO 205 colon; PC-3 prostate; MDA-MB-231 breast; MDA-MB-435.
What all share (test): DTP human tumour cell line panel, 48 h

On to `CCCCc1ccc2nc(NC(=O)OC)[nH]c2c1`, for which the concentration for 50% growth inhibition (GI50) was 0.038 µM with COLO 205 colon, 0.0413 µM in the assay on PC-3 prostate, 0.291 µM in the assay on MDA-MB-231 breast and 0.0148 µM in the assay with MDA-MB-435. Further, the concentration for total growth inhibition (TGI) in the assay with COLO 205 colon is 0.37 µM; with PC-3 prostate, more than 82.7 µM; in the assay with MDA-MB-231 breast, more than 74.7 µM; with MDA-MB-435, 0.0379 µM.

For `COc1ccc(C(=O)/C=C/c2ccc(Cl)cc2)cc1S(N)(=O)=O`, the GI50 was 2.03 µM in the assay with COLO 205 colon, 2.24 µM in the assay on PC-3 prostate, 3.48 µM in the assay with MDA-MB-231 breast and 4.34 µM with MDA-MB-435. In addition, the TGI came out at 4.84 µM in the assay on COLO 205 colon, 5.24 µM in the assay with PC-3 prostate, 11.7 µM in the assay with MDA-MB-231 breast and 15.6 µM with MDA-MB-435.

For `Cc1nc2c(cnn2-c2ccnc3c(C(F)(F)F)cccc23)c(=O)o1`, the GI50 in the assay with COLO 205 colon, in the assay with PC-3 prostate, in the assay on MDA-MB-231 breast and in the assay on MDA-MB-435 was more than 100 µM throughout. For the same compound, the TGI in the assay on COLO 205 colon, in the assay on PC-3 prostate, in the assay with MDA-MB-231 breast and in the assay on MDA-MB-435 was more than 100 µM in each case.

In the case of `COc1ccc(CN2CCc3c(Cl)nc(N)nc3C2=O)c(OC)c1`, the GI50 is 16.3 µM in the assay with COLO 205 colon, 14.8 µM in the assay with MDA-MB-231 breast and 16.4 µM with MDA-MB-435. In addition, the TGI with COLO 205 colon worked out at 30.6 µM; in the assay with MDA-MB-231 breast it was 30.3 µM; in the assay on MDA-MB-435 it was 39.5 µM.

For `CC/C(=C(\c1ccccc1)c1ccc(OCCN(C)C)cc1)c1ccccc1`, the GI50 in the assay on COLO 205 colon was 0.892 µM; in the assay with PC-3 prostate it was 2.47 µM; in the assay with MDA-MB-231 breast it was 3.59 µM; in the assay with MDA-MB-435, 2.66 µM.

In the case of `CC(=O)O[C@@H]1C=CC(=O)C2(CC(=O)O[C@@H]2/C=C(\C)CCC=C(C)C)C1` (some centres not stated), the GI50 in the assay with COLO 205 colon is 2.24 µM; in the assay on PC-3 prostate it was 0.383 µM; in the assay with MDA-MB-231 breast, 0.405 µM; in the assay on MDA-MB-435, 0.369 µM. The TGI is 10.3 µM with COLO 205 colon, 1.19 µM in the assay on PC-3 prostate, 1.33 µM with MDA-MB-231 breast and 1.6 µM in the assay with MDA-MB-435.

For `NC(=O)C/C=C/CC(N)=O`, the TGI in the assay with COLO 205 colon, in the assay on PC-3 prostate, with MDA-MB-231 breast and with MDA-MB-435 was more than 100 µM throughout.

Take `CCN1CCC(C(=O)Nc2n[nH]c3nnc(-c4cccc(F)c4F)cc23)CC1`: the GI50 with COLO 205 colon was 4.61 µM; in the assay on PC-3 prostate, 10.1 µM; in the assay with MDA-MB-231 breast, 5.51 µM; in the assay on MDA-MB-435 it was 10.5 µM. Besides, the TGI with COLO 205 colon is 9.17 µM; with PC-3 prostate, more than 25 µM; in the assay on MDA-MB-231 breast it was 20.3 µM; in the assay with MDA-MB-435, more than 25 µM.

As to `O=c1c(Cl)nsnc1Cl`, the TGI amounted to 3.87 µM in the assay with COLO 205 colon, 39.1 µM in the assay with PC-3 prostate, 41.8 µM in the assay on MDA-MB-231 breast and 28.1 µM in the assay on MDA-MB-435.

Turning to `CCN(CC)CCn1c(=N)n(CC(O)c2ccc(Cl)c(Cl)c2)c2ccccc21` (configuration not stated), the GI50 in the assay with COLO 205 colon was 2.05 µM; in the assay on PC-3 prostate it was 5.21 µM; in the assay on MDA-MB-231 breast it was 5.16 µM; with MDA-MB-435, 1.75 µM. Besides, the concentration for total growth inhibition (TGI) with COLO 205 colon turned out to be 3.96 µM; in the assay on PC-3 prostate it was 19.3 µM; in the assay with MDA-MB-231 breast, 20.2 µM; in the assay with MDA-MB-435 it was 3.49 µM.

On to `O=C(CCCCCCc1nc2ccc(Br)cc2[nH]1)NO`, for which the GI50 in the assay on COLO 205 colon was 0.975 µM; in the assay with PC-3 prostate, 0.796 µM; in the assay with MDA-MB-231 breast, 0.824 µM; in the assay with MDA-MB-435 it was 0.277 µM. Besides, the TGI in the assay on COLO 205 colon was 5.07 µM; in the assay on PC-3 prostate, more than 100 µM; in the assay with MDA-MB-231 breast, 25 µM; in the assay with MDA-MB-435, 1.38 µM.

Turning to `Cc1ccc(CCC(=O)Nc2ncc(Cc3cc(Cl)ccc3Cl)s2)o1`, the GI50 with COLO 205 colon was 0.194 µM; in the assay with PC-3 prostate, 0.244 µM; in the assay with MDA-MB-231 breast, 0.388 µM; in the assay with MDA-MB-435, 0.0286 µM. Moreover, the TGI with COLO 205 colon is 0.658 µM; in the assay on PC-3 prostate it was more than 42.8 µM; in the assay on MDA-MB-231 breast, 3.35 µM; in the assay on MDA-MB-435 it was 0.0949 µM.

Turning to `C1=C[C@@H]2c3ccc4cnccc4c3NC[C@@H]2C1`, the total growth inhibition concentration (TGI) in the assay with COLO 205 colon, in the assay with PC-3 prostate and in the assay on MDA-MB-435 was more than 100 µM throughout.

Turning to `O=C1CCC/C=C\C[C@H]2C=C(Cl)C(=O)/C2=C/C[C@H](CCCCC(F)(F)F)OC(=O)CCC/C=C\C[C@H]2C=C(Cl)C(=O)/C2=C/C[C@H](CCCCC(F)(F)F)O1`, the GI50 in the assay with COLO 205 colon is 0.246 µM; with PC-3 prostate, 0.192 µM; with MDA-MB-231 breast, 0.194 µM; with MDA-MB-435, 0.147 µM. Moreover, the concentration for total growth inhibition (TGI) is 0.859 µM in the assay with COLO 205 colon, 0.574 µM in the assay on PC-3 prostate, 0.504 µM in the assay with MDA-MB-231 breast and 0.307 µM with MDA-MB-435.

As to `O=C(Cn1ccnc1[N+](=O)[O-])NCCO`, the total growth inhibition concentration (TGI) in the assay with COLO 205 colon, in the assay with PC-3 prostate, in the assay with MDA-MB-231 breast and in the assay with MDA-MB-435 was more than 100 µM throughout.

On to `Cc1cc(Cl)n2c(nc3ccccc32)c1C#N`, for which the GI50 with COLO 205 colon was 0.296 µM; with PC-3 prostate it was 0.383 µM; in the assay with MDA-MB-231 breast it was 0.649 µM; in the assay on MDA-MB-435, 0.327 µM. For the same compound, the TGI in the assay on COLO 205 colon stood at 0.803 µM; with PC-3 prostate, 1.6 µM; in the assay with MDA-MB-231 breast, 4.58 µM; in the assay on MDA-MB-435 it was 1.6 µM.

Take `Cc1cc2c(-c3nc4ccccc4[nH]3)c(O)c(O)cc2c(O)c1-c1c(C)cc2c(-c3nc4ccccc4[nH]3)c(O)c(O)cc2c1O`: the GI50 was 0.0231 µM in the assay on COLO 205 colon, 0.0187 µM in the assay on PC-3 prostate, 0.0835 µM in the assay with MDA-MB-231 breast and 0.0248 µM in the assay with MDA-MB-435. For the same compound, the TGI in the assay on COLO 205 colon was 0.913 µM; with PC-3 prostate, more than 34.4 µM; in the assay on MDA-MB-231 breast, more than 38.9 µM; in the assay on MDA-MB-435, 18.3 µM.

As to `COc1ccc(C(=O)c2cc3c(N)c(C(=O)Nc4cccc(Cl)c4)sc3nc2C)cc1`, the GI50 in the assay with COLO 205 colon is 1.67 µM; in the assay with PC-3 prostate it was 1.48 µM; with MDA-MB-231 breast, 2.55 µM. Moreover, the TGI with COLO 205 colon, in the assay with PC-3 prostate and in the assay with MDA-MB-231 breast was more than 33.3 µM each time.

For `CC(C)Oc1cc(OCC(=O)O)cc(C(=O)N(CCC(N)=O)C(=O)Nc2ccc(C(=O)O)cc2OC(C)C)c1`, the GI50 in the assay on COLO 205 colon, with PC-3 prostate, with MDA-MB-231 breast and with MDA-MB-435 was more than 100 µM throughout. Also, the TGI in the assay on COLO 205 colon, in the assay on PC-3 prostate, in the assay with MDA-MB-231 breast and in the assay with MDA-MB-435 was more than 100 µM in each case.
